Laboratory results: patent US4994270A, “A54145 antibiotics and process for their production” (Eli Lilly and Company, priority 1988, dated 1991)
Converted amounts (≈) assume the structure as drawn. Starred links: 1 amine or outer side, 2 acyl side, 3 side chain; linkers in the order of their positions; H or OH if unused. Positions of bridges follow the written chain, without caps; N, C: chain ends. Non-standard residues stand in square brackets, D forms with d. Residues, ends and D or L forms follow the SMILES beside them. ξ: configuration not given here. *: point of attachment. ξAsp(3ξ-OMe) = COC(C(=O)O)C(N)C(=O)O; X1 = CC(CC(=O)O)C(N[*:1])C(=O)[*:2]; ξAsn(3ξ-OH) = NC(=O)C(O)C(N)C(=O)O; Decanoyl = CCCCCCCCCC(=O)*; X3 = CCC(C)CCCCCCC(=O)*; X2 = CC(C)CCCCCCC(=O)*; Sar = CNCC(=O)O

Key:
[1] = test system: Streptococcus pyogenes C203; experiment: MIC, conventional agar-dilution assay; format: cell-based
Procedure: (§1) The A54145 antibiotics inhibit the growth of pathogenic bacteria. […] The MIC's in Table IX were determined by conventional agar-dilution assays.

[2] = test system: Streptococcus sp. group D X66; experiment: MIC, conventional agar-dilution assay; format: cell-based
Procedure: as §1

[3] = test system: Staphylococcus aureus X1.1; experiment: MIC, conventional agar-dilution assay; format: cell-based
Procedure: as §1

[4] = test system: Streptococcus pneumoniae Park1; experiment: MIC, conventional agar-dilution assay; format: cell-based
Procedure: as §1

[5] = test system: Staphylococcus aureus V41; experiment: MIC, conventional agar-dilution assay; format: cell-based
Procedure: as §1

[6] = test system: Staphylococcus aureus S13E; experiment: MIC, conventional agar-dilution assay; format: cell-based
Procedure: as §1

[7] = test system: Staphylococcus aureus X400; experiment: MIC, conventional agar-dilution assay; format: cell-based
Procedure: as §1

[8] = test system: Staphylococcus epidermidis EPI1; experiment: MIC, conventional agar-dilution assay; format: cell-based
Procedure: as §1

[9] = test system: Streptococcus sp. group 2041; experiment: MIC, conventional agar-dilution assay; format: cell-based
Procedure: as §1

[10] = test system: Staphylococcus epidermidis 222; experiment: MIC, conventional agar-dilution assay; format: cell-based
Procedure: as §1

Streptococcus pyogenes = experiment: ED50 in experimentally infected mice; format: in vivo; settings: mice infected with Streptococcus pyogenes; subcutaneous; doses given 1 and 4 hours postinfection
Procedure: The A54145 antibiotics have shown in vivo antimicrobial activity against experimentally-induced infections in laboratory animals. When two doses of test compound were administered to mice experimentally infected with Streptococcus pyogenes or Staphylococcus aureus, the activity observed was measured as an ED50 value [effective dose in mg/kg to protect 50% of the test animals: see Warren Wick, et al. J. Bacteriol. 81 233-235 (1961)].

[11] = Chick growth performance test (weight gain, feed efficiency); format: in vivo, chicks; settings: for Feed/Gain Ratio / Weight Gain Amt. / Feed/Gain % Impr. / Weight Gain % Impr.: Table XIII; for Weight Gain Amt.: chicks 7-14 days of age; for Feed/Gain % Impr. / Weight Gain % Impr.: relative to the control mean
Description: In the tests, the compounds were given to chicks at the concentrations indicated in the feed. The test period was the 7-day period from 7-14 days of age of the birds. Growth performance (weight gain, feed consumption and feed efficiency) was compared to that of contemporary controls.

SMILES	MIC [1] [µg/mL]	MIC [2] [µg/mL]	MIC [3] [µg/mL]	MIC [4] [µg/mL]	MIC [5] [µg/mL]	MIC [6] [µg/mL]	MIC [7] [µg/mL]	MIC [8] [µg/mL]	MIC [9] [µg/mL]	MIC [10] [µg/mL]	also measured
CCCCCCCCCC(=O)NC(Cc1c[nH]c2ccccc12)C(=O)NC(CCC(=O)O)C(=O)NC(C(=O)NC1C(=O)N(C)CC(=O)NC(C)C(=O)NC(CC(=O)O)C(=O)NC(CCCCN)C(=O)NC(C(OC)C(=O)O)C(=O)NCC(=O)NC(CC(N)=O)C(=O)NC(CCC(=O)O)C(=O)NC(C(C)CC)C(=O)OC1C)C(O)C(N)=O (stereo not shown) [Component A54145A1] (Decanoyl-WE[ξAsn(3ξ-OH)]T[Sar]ADK[ξAsp(3ξ-OMe)]GNEI; ester 4-C; configuration not given here)	1 (≈ 0.608 µM)	16 (≈ 9.73 µM)	4 (≈ 2.43 µM)	4 (≈ 2.43 µM)	4 (≈ 2.43 µM)	8 (≈ 4.86 µM)	8 (≈ 4.86 µM)	4 (≈ 2.43 µM)	32 (≈ 19.5 µM)	4 (≈ 2.43 µM)	ED50 Value (Streptococcus pyogenes): 5.0 mg/kg × 2
CCC(C)C1NC(=O)C(C(C)CC(=O)O)NC(=O)C(CC(N)=O)NC(=O)CNC(=O)C(C(OC)C(=O)O)NC(=O)C(CCCCN)NC(=O)C(CC(=O)O)NC(=O)C(C)NC(=O)CN(C)C(=O)C(NC(=O)C(NC(=O)C(CCC(=O)O)NC(=O)C(Cc2c[nH]c3ccccc23)NC(=O)CCCCCCC(C)C)C(O)C(N)=O)C(C)OC1=O (stereo not shown) [Component A54145B1] (X2-WE[ξAsn(3ξ-OH)]T[Sar]ADK[ξAsp(3ξ-OMe)]GN[X1]I; ester 4-C; configuration not given here)	0.5 (≈ 0.301 µM)	8 (≈ 4.82 µM)	2 (≈ 1.21 µM)	2 (≈ 1.21 µM)	2 (≈ 1.21 µM)	2 (≈ 1.21 µM)	2 (≈ 1.21 µM)	1 (≈ 0.603 µM)	32 (≈ 19.3 µM)	1 (≈ 0.603 µM)	Feed/Gain Ratio ([11]; 5 g/ton): 1.906; Weight Gain Amt. ([11]; 5 g/ton in feed): 326 g; Feed/Gain % Impr. ([11]; 5 g/ton): 5.3%; Weight Gain % Impr. ([11]; 5 g/ton): 3.5%; Feed/Gain Ratio ([11]; 10 g/ton): 1.860; Weight Gain Amt. ([11]; 10 g/ton in feed): 358 g; Feed/Gain % Impr. ([11]; 10 g/ton): 7.4%; Weight Gain % Impr. ([11]; 10 g/ton): 13.7%; Feed/Gain Ratio ([11]; 20 g/ton): 1.686; Weight Gain Amt. ([11]; 20 g/ton in feed): 448 g; Feed/Gain % Impr. ([11]; 20 g/ton): 16.2%; Weight Gain % Impr. ([11]; 20 g/ton): 42.2%
CCCCCCCCCC(=O)NC(Cc1c[nH]c2ccccc12)C(=O)NC(CCC(=O)O)C(=O)NC(C(=O)NC1C(=O)N(C)CC(=O)NC(C)C(=O)NC(CC(=O)O)C(=O)NC(CCCCN)C(=O)NC(C(OC)C(=O)O)C(=O)NCC(=O)NC(CC(N)=O)C(=O)NC(C(C)CC(=O)O)C(=O)NC(C(C)CC)C(=O)OC1C)C(O)C(N)=O (stereo not shown) [Component A54145B] (Decanoyl-WE[ξAsn(3ξ-OH)]T[Sar]ADK[ξAsp(3ξ-OMe)]GN[X1]I; ester 4-C; configuration not given here)	0.5 (≈ 0.301 µM)	4 (≈ 2.41 µM)	2 (≈ 1.21 µM)	2 (≈ 1.21 µM)	2 (≈ 1.21 µM)	2 (≈ 1.21 µM)	2 (≈ 1.21 µM)	2 (≈ 1.21 µM)	8 (≈ 4.82 µM)	2 (≈ 1.21 µM)	Feed/Gain Ratio ([11]; 5 g/ton): 1.887; Weight Gain Amt. ([11]; 5 g/ton in feed): 341 g; Feed/Gain % Impr. ([11]; 5 g/ton): 6.3%; Weight Gain % Impr. ([11]; 5 g/ton): 8.3%; Feed/Gain Ratio ([11]; 10 g/ton): 1.730; Weight Gain Amt. ([11]; 10 g/ton in feed): 392 g; Feed/Gain % Impr. ([11]; 10 g/ton): 14.1%; Weight Gain % Impr. ([11]; 10 g/ton): 24.4%; Feed/Gain Ratio ([11]; 20 g/ton): 1.785; Weight Gain Amt. ([11]; 20 g/ton in feed): 402 g; Feed/Gain % Impr. ([11]; 20 g/ton): 11.3%; Weight Gain % Impr. ([11]; 20 g/ton): 27.6%; weight gains in chickens (in words) ([11]; chickens): increased weight gains; ED50 Value (Streptococcus pyogenes): 0.94 mg/kg × 2
CCC(C)CCCCCCC(=O)NC(Cc1c[nH]c2ccccc12)C(=O)NC(CCC(=O)O)C(=O)NC(C(=O)NC1C(=O)N(C)CC(=O)NC(C)C(=O)NC(CC(=O)O)C(=O)NC(CCCCN)C(=O)NC(C(OC)C(=O)O)C(=O)NCC(=O)NC(CC(N)=O)C(=O)NC(C(C)CC(=O)O)C(=O)NC(C(C)C)C(=O)OC1C)C(O)C(N)=O (stereo not shown) [Component A54145C] (X3-WE[ξAsn(3ξ-OH)]T[Sar]ADK[ξAsp(3ξ-OMe)]GN[X1]V; ester 4-C; configuration not given here)	0.5 (≈ 0.301 µM)	4 (≈ 2.41 µM)	2 (≈ 1.21 µM)	2 (≈ 1.21 µM)	2 (≈ 1.21 µM)	2 (≈ 1.21 µM)	2 (≈ 1.21 µM)	2 (≈ 1.21 µM)	4 (≈ 2.41 µM)	1 (≈ 0.603 µM)	
CCC(C)CCCCCCC(=O)NC(Cc1c[nH]c2ccccc12)C(=O)NC(CCC(=O)O)C(=O)NC(C(=O)NC1C(=O)N(C)CC(=O)NC(C)C(=O)NC(CC(=O)O)C(=O)NC(CCCCN)C(=O)NC(C(OC)C(=O)O)C(=O)NCC(=O)NC(CC(N)=O)C(=O)NC(CCC(=O)O)C(=O)NC(C(C)CC)C(=O)OC1C)C(O)C(N)=O (stereo not shown) [Component A54145D] (X3-WE[ξAsn(3ξ-OH)]T[Sar]ADK[ξAsp(3ξ-OMe)]GNEI; ester 4-C; configuration not given here)	0.5 (≈ 0.301 µM)	4 (≈ 2.41 µM)	4 (≈ 2.41 µM)	4 (≈ 2.41 µM)	4 (≈ 2.41 µM)	4 (≈ 2.41 µM)	4 (≈ 2.41 µM)	2 (≈ 1.21 µM)	32 (≈ 19.3 µM)	2 (≈ 1.21 µM)	
CCC(C)CCCCCCC(=O)NC(Cc1c[nH]c2ccccc12)C(=O)NC(CCC(=O)O)C(=O)NC(C(=O)NC1C(=O)N(C)CC(=O)NC(C)C(=O)NC(CC(=O)O)C(=O)NC(CCCCN)C(=O)NC(C(OC)C(=O)O)C(=O)NCC(=O)NC(CC(N)=O)C(=O)NC(C(C)CC(=O)O)C(=O)NC(C(C)CC)C(=O)OC1C)C(O)C(N)=O (stereo not shown) [Component A54145E] (X3-WE[ξAsn(3ξ-OH)]T[Sar]ADK[ξAsp(3ξ-OMe)]GN[X1]I; ester 4-C; configuration not given here)	0.25 (≈ 0.149 µM)	2 (≈ 1.2 µM)	1 (≈ 0.598 µM)	1 (≈ 0.598 µM)	2 (≈ 1.2 µM)	2 (≈ 1.2 µM)	2 (≈ 1.2 µM)	1 (≈ 0.598 µM)	4 (≈ 2.39 µM)	1 (≈ 0.598 µM)	
COC(C(=O)O)C1NC(=O)C(CCCCN)NC(=O)C(CC(=O)O)NC(=O)C(C)NC(=O)CN(C)C(=O)C(NC(=O)C(NC(=O)C(CCC(=O)O)NC(=O)C(Cc2c[nH]c3ccccc23)NC(=O)CCCCCCC(C)C)C(O)C(N)=O)C(C)OC(=O)C(C(C)C)NC(=O)C(CCC(=O)O)NC(=O)C(CC(N)=O)NC(=O)CNC1=O (stereo not shown) [Component A54145F] (X2-WE[ξAsn(3ξ-OH)]T[Sar]ADK[ξAsp(3ξ-OMe)]GNEV; ester 4-C; configuration not given here)	4 (≈ 2.45 µM)	16 (≈ 9.81 µM)	16 (≈ 9.81 µM)	8 (≈ 4.91 µM)	16 (≈ 9.81 µM)	16 (≈ 9.81 µM)	16 (≈ 9.81 µM)	16 (≈ 9.81 µM)	> 32	8 (≈ 4.91 µM)	
